From patent US11957687B2 (REGENERON PHARMACEUTICALS, INC., priority 2019, dated 2024)
pIC50: −log10 of the molar value.

The molecules below were run against HSD17B13 (Homo sapiens (Human), UniProt Q7Z5P4) (assay: HSD17B13 enzymatic inhibition assay (150 nM or 50 nM HSD17B13)). Settings: 50 nM HSD17B13; read-out: Inhibition of 50 nM of HSD17B13 IC50.
Chain of HSD17B13 (Q7Z5P4 other isoform, or with tags, fused parts or gaps): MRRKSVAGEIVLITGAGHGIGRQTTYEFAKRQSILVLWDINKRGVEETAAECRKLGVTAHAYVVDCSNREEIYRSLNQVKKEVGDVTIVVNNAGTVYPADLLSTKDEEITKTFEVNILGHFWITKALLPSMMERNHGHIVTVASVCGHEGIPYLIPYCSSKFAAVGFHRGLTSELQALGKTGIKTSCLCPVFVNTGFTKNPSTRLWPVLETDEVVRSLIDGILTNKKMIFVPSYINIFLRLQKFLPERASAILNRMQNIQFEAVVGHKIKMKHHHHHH
Type: biochemical
In the case of `Cc1ccc2c(c1)N(C(=O)OC(C)(C)C)CCC2NC(=O)c1ccc(C(F)(F)F)[nH]c1=O` (centres unmarked) [Compound 546, tert-butyl 7-methyl-4-(2-oxo-6-(trifluoromethyl)-1,2-dihydropyridine-3-carboxamido)-3,4-dihydroquinoline-1(2H)-carboxylate], the pIC50 was under 5.00.
With `Cc1ccc2c(c1)C(NC(=O)c1ccc(C(F)(F)F)[nH]c1=O)CO2` (centres unmarked) [Compound 408, N-(5-methyl-2,3-dihydrobenzofuran-3-yl)-2-oxo-6-(trifluoromethyl)-1,2-dihydropyridine-3-carboxamide] the pIC50 was 5.61.
Molecule `CCCc1cc(C(F)(F)F)[nH]c(=O)c1C(=O)NC1c2ccc(Cl)cc2Oc2cccc(Cl)c21` (centres unmarked) [Compound 209, N-(1,6-dichloro-9H-xanthen-9-yl)-2-oxo-4-propyl-6-(trifluoromethyl)-1,2-dihydropyridine-3-carboxamide] has a pIC50 of 5.46.
Molecule `Cc1c(C(F)(F)F)[nH]c(=O)c(C(=O)NC2c3ccccc3-c3ccccc32)c1C` [Compound 214, N-(9H-fluoren-9-yl)-4,5-dimethyl-2-oxo-6-(trifluoromethyl)-1,2-dihydropyridine-3-carboxamide] has a pIC50 of under 5.00.
`N#Cc1ccc2c(c1)C(NC(=O)c1ccc(C(F)(F)F)[nH]c1=O)c1ccccc1O2` (centres unmarked) [Compound 154, N-(2-cyano-9H-xanthen-9-yl)-2-oxo-6-(trifluoromethyl)-1,2-dihydropyridine-3-carboxamide] showed a pIC50 of 6.19.
In the case of `O=C(NC1c2ccc(Cl)cc2Oc2cc(Cl)ccc21)c1cnc(C(F)(F)F)[nH]c1=O` [Compound 192, N-(3,6-dichloro-9H-xanthen-9-yl)-6-oxo-2-(trifluoromethyl)-1,6-dihydropyrimidine-5-carboxamide], the pIC50 was 6.64.
Molecule `COc1ccc2c(c1)Oc1cc(OC)ccc1C2NC(=O)c1ccc(C(F)(F)F)[nH]c1=O` [Compound 56, N-(3,6-dimethoxy-9H-xanthen-9-yl)-2-oxo-6-(trifluoromethyl)-1,2-dihydropyridine-3-carboxamide] has a pIC50 of 6.36.
`CN1CC(c2ccc3c(c2)Oc2ccccc2C3NC(=O)c2ccc(C(F)(F)F)[nH]c2=O)C1` (centres unmarked) [Compound 484, N-(3-(1-methylazetidin-3-yl)-9H-xanthen-9-yl)-2-oxo-6-(trifluoromethyl)-1,2-dihydropyridine-3-carboxamide] showed a pIC50 of 5.30.
`CCCc1ccc2c(c1)C(NC(=O)c1ccc(C(F)(F)F)[nH]c1=O)c1ccccc1O2` (centres unmarked) [Compound 457, 2-oxo-N-(2-propyl-9H-xanthen-9-yl)-6-(trifluoromethyl)-1,2-dihydropyridine-3-carboxamide] gave a pIC50 of 6.92.
Molecule `C=CCc1cccc(C(NC(=O)c2ccc(C(F)(F)F)[nH]c2=O)c2ccccc2)c1` (centres unmarked) [Compound 539, N-((3-allylphenyl)(phenyl)methyl)-2-oxo-6-(trifluoromethyl)-1,2-dihydropyridine-3-carboxamide] has a pIC50 of 6.13.
With `CCC[C@H]1C[C@@H](NC(=O)c2cc(-c3ccccc3)c(C(F)(F)F)[nH]c2=O)c2cc(C)ccc2N1` [Compound 265, N-((2S,4R)-6-methyl-2-propyl-1,2,3,4-tetrahydroquinolin-4-yl)-2-oxo-5-phenyl-6-(trifluoromethyl)-1,2-dihydropyridine-3-carboxamide] the pIC50 was 7.10.
For `Cc1ccc2c(c1)C(NC(=O)c1ccc(C(F)(F)F)[nH]c1=O)CCN2` (centres unmarked) [Compound 339, N-(6-methyl-1,2,3,4-tetrahydroquinolin-4-yl)-2-oxo-6-(trifluoromethyl)-1,2-dihydropyridine-3-carboxamide], the pIC50 was 5.55.
`Cc1ccc(C(NC(=O)c2cc(C(F)(F)F)c[nH]c2=O)c2ccc(C)cc2)cc1` [Compound 116, N-(di-p-tolylmethyl)-2-oxo-5-(trifluoromethyl)-1,2-dihydropyridine-3-carboxamide] showed a pIC50 of under 5.00.
`CC(F)(F)c1ccc(C(=O)NC2c3ccccc3Oc3ccccc32)c(=O)[nH]1` [Compound 424, 6-(1,1-difluoroethyl)-2-oxo-N-(9H-xanthen-9-yl)-1,2-dihydropyridine-3-carboxamide] was tested, and the pIC50 was 5.94.
`O=C(NC(c1ccccc1)c1ccc(C2=CCCC2)cc1)c1ccc(C(F)(F)F)[nH]c1=O` (centres unmarked) [Compound 31, N-((4-(cyclopent-1-en-1-yl)phenyl)(phenyl)methyl)-2-oxo-6-(trifluoromethyl)-1,2-dihydropyridine-3-carboxamide] gave a pIC50 of 6.34.
In the case of `CCCc1cccc(C(NC(=O)c2ccc(C(F)(F)F)[nH]c2=O)c2ccccc2)c1` (centres unmarked) [Compound 465, 2-oxo-N-(phenyl(3-propylphenyl)methyl)-6-(trifluoromethyl)-1,2-dihydropyridine-3-carboxamide], the pIC50 was 6.21.
For `O=C(NC1c2ccccc2Oc2ccc(C3CNC3)cc21)c1ccc(C(F)(F)F)[nH]c1=O` (centres unmarked) [Compound 481, N-(2-(azetidin-3-yl)-9H-xanthen-9-yl)-2-oxo-6-(trifluoromethyl)-1,2-dihydropyridine-3-carboxamide], the pIC50 was 5.85.
With `Cc1ccc2c(c1)[C@@H](N)CC[C@H]2NC(=O)c1ccc(C(F)(F)F)[nH]c1=O` [Compound 305, N-((1R,4S)-4-amino-6-methyl-1,2,3,4-tetrahydronaphthalen-1-yl)-2-oxo-6-(trifluoromethyl)-1,2-dihydropyridine-3-carboxamide] the pIC50 was 5.11.
`Cc1ccc2c(c1)Oc1cc(C)ccc1C2NC(=O)c1cc(C)c(C(F)(F)F)[nH]c1=O` [Compound 166, N-(3,6-dimethyl-9H-xanthen-9-yl)-5-methyl-2-oxo-6-(trifluoromethyl)-1,2-dihydropyridine-3-carboxamide] showed a pIC50 of 7.22.
`N#Cc1ccc(C(NC(=O)c2ccc(C(F)(F)F)[nH]c2=O)c2ccc(C#N)cc2)cc1` [Compound 49, N-(bis(4-cyanophenyl)methyl)-2-oxo-6-(trifluoromethyl)-1,2-dihydropyridine-3-carboxamide] gave a pIC50 of 6.01.
`O=C(NC1CCOc2ccccc21)c1ccc(C(F)(F)F)[nH]c1=O` (centres unmarked) [Compound 128, N-(chroman-4-yl)-2-oxo-6-(trifluoromethyl)-1,2-dihydropyridine-3-carboxamide] gave a pIC50 of 5.24.
For `Cc1ccc2c(c1)[C@H](N)CC[C@H]2NC(=O)c1ccc(C(F)(F)F)[nH]c1=O` [Compound 304, N-((1R,4R)-4-amino-6-methyl-1,2,3,4-tetrahydronaphthalen-1-yl)-2-oxo-6-(trifluoromethyl)-1,2-dihydropyridine-3-carboxamide], the pIC50 was under 5.00.
`CN1CCC(c2ccc(C(NC(=O)c3ccc(C(F)(F)F)[nH]c3=O)c3ccccc3)cc2)CC1` (centres unmarked) [Compound 106, N-((4-(1-methylpiperidin-4-yl)phenyl)(phenyl)methyl)-2-oxo-6-(trifluoromethyl)-1,2-dihydropyridine-3-carboxamide] showed a pIC50 of under 5.00.
For `CCCc1cc(C(F)(F)F)[nH]c(=O)c1C(=O)NC1c2ccc(C)cc2Oc2cccc(C)c21` (centres unmarked) [Compound 208, N-(1,6-dimethyl-9H-xanthen-9-yl)-2-oxo-4-propyl-6-(trifluoromethyl)-1,2-dihydropyridine-3-carboxamide], the pIC50 was under 5.00.
`Cc1ccc([C@H](NC(=O)c2ccc(C(F)(F)F)[nH]c2=O)[C@H]2CCCOC2)cc1` [Compound 398, 2-oxo-N—((R)—((R)-tetrahydro-2H-pyran-3-yl)(p-tolyl)methyl)-6-(trifluoromethyl)-1,2-dihydropyridine-3-carboxamide] gave a pIC50 of 5.21.
With `O=C(NCC1c2ccccc2-c2ccccc21)c1ccc(C(F)(F)F)[nH]c1=O` [Compound 217, N-((9H-fluoren-9-yl)methyl)-2-oxo-6-(trifluoromethyl)-1,2-dihydropyridine-3-carboxamide] the pIC50 was 5.08.
